Assays:
EGFR [1] = target: T1, EGFR (Homo sapiens (Human), UniProt P00533); experiment: A549 cell lysis and immunoassay, phospho-EGFR (Y1068) inhibition; format: cell-based; parameters: key: X: EGFR bound and autophosphoration of EGFR inhibited in cells; settings: A549 cells
Description: (§1) A549 cells (ATCC) were cultured in Dulbecco's Modified Eagle's Medium (DMEM) (Wisent) supplemented with 10% FBS and 1% penicillin/streptomycin. Cells were seeded in 6-well plates at 530,000 cells/well and incubated at 37° C., 5% CO2 for 16 hours. Cells were starved in DMEM containing 1% FBS for 4 hours before they were treated with the indicated concentrations of compound or DMSO alone and incubated at 37° C., 5% CO2 for 24 hours. Prior to cell harvest and lysis, 50 ng/ml human epidermal growth factor (hEGF) (Sigma) was added to the cells and incubated at 37° C., 5% CO2 for 10 minutes. Conditioned media was discarded, and adherent cells were washed with PBS before they were scraped on ice. Cell suspensions were centrifugated at 2,000 RPM for 5 minutes at 4° C. and supernatants were discarded. Cell pellets were resuspended with 1× RIPA buffer (Millipore) and incubated on ice for 15 minutes. Protein lysates were extracted by centrifugating at 20,000 RPM for 20 minutes at 4° C. Proteins were separated and total EGFR protein levels were quantified by Simple Western Immunoassay (ProteinSimple) using the Protein Normalization Assay Module for Jess according to the manufacturer's protocol, using a protein concentration of 0.125 μg/μl and an antibody targeting EGFR (clone #EP38Y, Abcam) diluted to 1:400. Phosphorylated EGFR protein levels were quantified with the same assay using a protein concentration of 1 μg/μl and an antibody targeting pEGFR (Y1068) (Cell Signalling) diluted to 1:25. EGFR and phosphorylated EGFR levels were normalized to the Jess Protein Normalization Reagent loading control and subsequently to the DMSO control.

EGFR [2] = target: T1, EGFR; experiment: A549 cell lysis and immunoassay, total EGFR degradation; format: cell-based; parameters: key: Y: EGFR bound in cells and EGFR degradation occurred; settings: A549 cells
Description: as §1

BTK [3] = target: T2, BTK (Homo sapiens (Human), UniProt Q06187); experiment: Ramos RA1 cell lysis and immunoassay, total BTK degradation; format: cell-based; parameters: key to % BTK degradation (RAMOS, 24 h): Y: BTK bound in cells and BTK degradation occurred; concentration or dose not given beside the values; key to % BTK degradation (RAMOS, 10 uM, 24 h): Y: EGFR bound in cells and EGFR degradation occurred; settings: RAMOS cells
Description: Ramos RA 1 cells (ATCC) were cultured in RPMI-1640 media (Wisent) supplemented with 10% heat-inactivated FBS and 1% penicillin/streptomycin. Cells were seeded in 6-well plates at 1.71×10^6 cells/well and incubated at 37° C., 5% CO2 for 16 hours. Cells were treated with compound at the indicated concentrations or DMSO alone and incubated at 37° C., 5% CO2 for 24 hours. Cell suspensions were centrifugated at 1,400-1,600 RPM for 5 minutes at room temperature and supernatants were discarded. Cell pellets were resuspended with 1× RIPA buffer (Millipore) and incubated on ice for 15 minutes. Protein lysates were extracted by centrifugating at 20,000 RPM for 20 minutes at 4° C. Proteins were separated and total BTK protein levels were quantified by Simple Western Immunoassay (ProteinSimple) using the 12-230 kDa Jess Separation Module according to the manufacturer's protocol, using a protein concentration of 0.25 μg/μl and antibodies targeting BTK (clone #D3H5, Cell Signalling) and β-Actin (clone #AC-15, Santa Cruz) diluted to 1:400 and 1:10, respectively, where the latter was used as a loading control. An equal ratio of rabbit and mouse HRP-conjugated secondary antibodies was used for detection. BTK protein levels were quantified relative to S-Actin loading levels and subsequently normalized to the DMSO control. Phosphorylated BTK levels were quantified using the Protein Normalization Assay Module for Jess (ProteinSimple) according to the manufacturer's protocol, using a protein concentration of 1.5 μg/μl and an antibody targeting pBTK (Y223) (Cell Signalling) diluted to 1:50. Phosphorylated BTK levels were quantified relative to the Protein Normalization Reagent and subsequently normalized to the DMSO control.

BTK [4] = target: T2, BTK; experiment: Jump dilution experiment, BTK; format: biochemical; settings: 1.5-h incubation, 142 nM BTK, 10×IC50 compound, 100-fold dilution
Description: (§2) Sample containing only DMSO vehicle was used as a positive (full activity) control while sample with no enzyme was used as a negative (zero activity) control. After the preincubation, the mixture was diluted 100-fold into a reaction mixture containing 1 uM biotinylated substrate and 28 uM ATP and the reaction was allowed to proceed for various time points (2, 5, 10, 15, 20, 30, 45 and 60 min), at which the reaction was terminated by adding 1 ul of 0.5 M EDTA. 62.5 nM SA-XL665 and 100-fold diluted europium labelled antibody (Eu-Ab), diluted in 1× detection buffer, was added as detection mixture. After 60 min of incubation, the fluorescence emission was measured at 620 nm and 665 nm. The ratio of Em 665 nm to Em 620 nm was proportional to the amount of substrate phosphorylated by the kinase.

EGFR [5] = target: T1, EGFR; experiment: Jump dilution experiment, EGFR; format: biochemical; settings: 1.5-h incubation, 46 nM EGFR, 10×IC50 compound, 100-fold dilution
Description: as §2, with “Six compounds (used at 10 times their IC50 concentrations) were pre incubated with EGFR (at 46 nM or 100-fold the normal assay concentration) for 1.5 h at room temperature. Sample” for “Sample”, “containing 0.5” for “containing 1”, “and 1.57” for “and 28”, “15,” for “15, 20,”, “30, 40,” for “30,”, “EDTA. 31.25” for “EDTA. 62.5”

[6] = compound concentration 10, 24 h

T2 sequence (Q06187 whole entry): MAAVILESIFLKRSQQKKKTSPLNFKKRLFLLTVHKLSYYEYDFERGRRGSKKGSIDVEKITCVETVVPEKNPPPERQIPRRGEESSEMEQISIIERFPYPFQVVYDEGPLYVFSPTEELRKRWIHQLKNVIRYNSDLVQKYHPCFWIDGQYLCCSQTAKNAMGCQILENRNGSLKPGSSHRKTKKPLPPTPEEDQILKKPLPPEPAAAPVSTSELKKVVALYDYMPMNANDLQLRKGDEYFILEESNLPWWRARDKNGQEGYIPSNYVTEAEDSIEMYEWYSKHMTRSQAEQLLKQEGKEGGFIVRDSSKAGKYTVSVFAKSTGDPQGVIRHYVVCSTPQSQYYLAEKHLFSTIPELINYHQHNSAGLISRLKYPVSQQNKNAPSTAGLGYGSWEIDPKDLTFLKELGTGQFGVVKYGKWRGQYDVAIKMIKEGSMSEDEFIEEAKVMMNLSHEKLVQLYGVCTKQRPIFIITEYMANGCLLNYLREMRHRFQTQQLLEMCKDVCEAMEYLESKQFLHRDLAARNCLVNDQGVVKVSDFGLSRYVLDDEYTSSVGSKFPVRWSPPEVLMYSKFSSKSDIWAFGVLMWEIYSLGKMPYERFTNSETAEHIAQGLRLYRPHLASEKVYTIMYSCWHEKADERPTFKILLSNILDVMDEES
T1 sequence (P00533 25-1210): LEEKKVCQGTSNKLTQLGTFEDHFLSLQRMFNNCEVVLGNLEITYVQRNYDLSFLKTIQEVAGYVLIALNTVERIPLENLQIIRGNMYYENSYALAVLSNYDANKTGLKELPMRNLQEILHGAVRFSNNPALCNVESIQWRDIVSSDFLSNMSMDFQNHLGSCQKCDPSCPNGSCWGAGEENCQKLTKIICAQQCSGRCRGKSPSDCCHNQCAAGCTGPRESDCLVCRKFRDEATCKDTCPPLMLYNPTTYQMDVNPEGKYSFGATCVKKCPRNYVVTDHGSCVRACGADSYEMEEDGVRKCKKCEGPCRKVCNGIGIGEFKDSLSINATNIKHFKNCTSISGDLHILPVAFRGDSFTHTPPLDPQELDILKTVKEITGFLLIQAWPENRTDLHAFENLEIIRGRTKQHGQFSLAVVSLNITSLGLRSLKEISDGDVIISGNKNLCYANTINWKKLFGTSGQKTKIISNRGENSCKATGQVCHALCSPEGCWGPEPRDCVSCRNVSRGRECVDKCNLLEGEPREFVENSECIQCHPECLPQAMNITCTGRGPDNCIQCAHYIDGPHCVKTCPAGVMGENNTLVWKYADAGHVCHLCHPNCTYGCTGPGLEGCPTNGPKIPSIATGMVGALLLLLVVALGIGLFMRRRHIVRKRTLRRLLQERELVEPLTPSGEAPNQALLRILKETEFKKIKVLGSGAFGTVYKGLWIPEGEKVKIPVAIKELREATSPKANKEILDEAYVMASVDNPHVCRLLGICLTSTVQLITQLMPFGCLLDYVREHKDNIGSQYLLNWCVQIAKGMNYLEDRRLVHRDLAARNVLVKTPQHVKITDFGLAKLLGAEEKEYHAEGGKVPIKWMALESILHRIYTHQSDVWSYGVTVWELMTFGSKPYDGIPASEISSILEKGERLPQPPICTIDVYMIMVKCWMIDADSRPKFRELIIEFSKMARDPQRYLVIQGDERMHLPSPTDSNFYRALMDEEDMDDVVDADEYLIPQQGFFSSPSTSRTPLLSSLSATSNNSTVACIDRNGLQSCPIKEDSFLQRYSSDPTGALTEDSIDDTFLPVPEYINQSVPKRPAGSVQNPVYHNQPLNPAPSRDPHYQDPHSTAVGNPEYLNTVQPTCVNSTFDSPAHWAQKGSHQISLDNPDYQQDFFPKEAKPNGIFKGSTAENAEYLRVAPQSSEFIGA

SMILES | pEGFR inhibition (A549, 1 μM, 24 h) (EGFR [1]) | pEGFR inhibition (A549, compound concentration, 24 h) (EGFR [1]; compound concentration 10 μM) | EGFR degradation (A549, 1 μM, 24 h) (EGFR [2]) | EGFR degradation (A549, compound concentration, 24 h) (EGFR [2]; [6]) | % BTK degradation (RAMOS, 24 h) (BTK [3]) | residual activity of BTK after jump dilution, relative to enzyme incubated with DMSO alone (BTK [4]) | % BTK degradation (RAMOS, 10 uM, 24 h) (BTK [3]; 10 uM) | residual activity of EGFR after jump dilution, relative to enzyme incubated with DMSO alone (EGFR [5]) | pEGFR inhibition (A549, compound concentration, 24 h) (EGFR [1]; compound concentration 5 μM) | EGFR degradation (A549, compound concentration, 24 h) (EGFR [2]; compound concentration 5, 24 h)
C[S@+]([O-])c1c(F)c(F)c(F)c(F)c1C(=O)N1CC(n2nc(-c3ccc(Oc4ccccc4)cc3)c3c(N)ncnc32)C1 (racemic) [Compound I-37, (3-(4-amino-3-(4-phenoxyphenyl)-1H-pyrazolo[3,4-d]pyrimidin-1-yl)azetidin-1-yl)(2,3,4,5-tetrafluoro-6-(methylsulfinyl)phenyl)methanone] | X | X | Y | Y | Y | less than 1% | – | – | – | –
C[S+]([O-])c1c(F)c(F)c(F)c(F)c1Nc1cc2c(Nc3ccc(F)c(Cl)c3)ncnc2cc1O[C@H]1CCOC1 (stereo partly drawn) [Compound I-4, N^4-(3-chloro-4-fluorophenyl)-N^6-(2,3,4,5-tetrafluoro-6-(methylsulfinyl)phenyl)-7-(((S)-tetrahydrofuran-3-yl)oxy)quinazoline-4,6-diamine] | X | X | Y | Y | Y | – | Y | less than 20% | – | –
CN(C)S(=O)(=O)c1c(F)c(F)c(F)c(F)c1C(=O)NCCn1nc(-c2ccc(Oc3ccccc3)cc2)c2c(N)ncnc21 [Compound I-40, N-(2-(4-amino-3-(4-phenoxyphenyl)-1H-pyrazolo[3,4-d]pyrimidin-1-yl)ethyl)-2-(N,N-dimethylsulfamoyl)-3,4,5,6-tetrafluorobenzamide] | X | – | – | – | Y | less than 1% | – | – | X | Y
C[S+]([O-])c1c(F)c(F)c(F)c(F)c1C(=O)Nc1cc2c(Nc3ccc(F)c(Cl)c3)ncnc2cc1OC1CCOC1 (stereo not drawn) [Compound I-3] | X | X | – | Y | Y | – | – | less than 20% | – | –
CS(=O)(=O)c1c(F)c(F)c(F)c(F)c1Nc1cc2c(Nc3ccc(F)c(Cl)c3)ncnc2cc1O[C@H]1CCOC1 [Compound I-2, (S)—N^4-(3-chloro-4-fluorophenyl)-N^6-(2,3,4,5-tetrafluoro-6-(methylsulfonyl)phenyl)-7-((tetrahydrofuran-3-yl)oxy)quinazoline-4,6-diamine] | X | X | Y | Y | Y | – | – | less than 20% | – | –
CS(=O)(=O)c1c(F)c(F)c(F)c(F)c1C(=O)NCCn1nc(-c2ccc(Oc3ccccc3)cc2)c2c(N)ncnc21 [Compound I-38, N-(2-(4-amino-3-(4-phenoxyphenyl)-1H-pyrazolo[3,4-d]pyrimidin-1-yl)ethyl)-2,3,4,5-tetrafluoro-6-(methylsulfonyl)benzamide] | X | – | Y | Y | Y | less than 1% | – | – | – | –
Nc1ncnc2c1c(-c1ccc(Oc3ccccc3)cc1)nn2CCCNC(=O)c1c(F)c(F)c(F)c(F)c1S(N)(=O)=O [Compound I-34, N-(3-(4-amino-3-(4-phenoxyphenyl)-1H-pyrazolo[3,4-d]pyrimidin-1-yl)propyl)-2,3,4,5-tetrafluoro-6-sulfamoylbenzamide] | X | – | Y | Y | Y | less than 1% | – | – | – | –
CN(CCn1nc(-c2ccc(Oc3ccccc3)cc2)c2c(N)ncnc21)C(=O)c1c(F)c(F)c(F)c(F)c1S(N)(=O)=O [Compound I-33, N-(2-(4-amino-3-(4-phenoxyphenyl)-1H-pyrazolo[3,4-d]pyrimidin-1-yl)ethyl)-2,3,4,5-tetrafluoro-N-methyl-6-sulfamoylbenzamide] | X | X | Y | Y | Y | less than 1% | – | – | – | –
